Source: PubChem BioAssay (NCI)
Where “and” joins values, the source holds several entries; their conditions need not be identical. Equal entries are not always repeated.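 A five-concentration, 48-hour dose response in 96-well plates underlies each endpoint, interpolated linearly between surrounding concentrations. At the GI50, growth is halved. Definition used: TGI = concentration required for complete inhibition of growth.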

Key:
Assay in all cases: NCI-60 cell line screen, 48 h
[1] = tested on: SN12C renal
[2] = tested on: HOP-62 NSCLC
[3] = tested on: OVCAR-4 ovarian
[4] = tested on: SK-MEL-2 melanoma
[5] = tested on: KM12 colon
[6] = tested on: SNB-75 CNS
[7] = tested on: HCT-15 colon
[8] = tested on: SNB-19 CNS
[9] = tested on: SW-620 colon
[10] = tested on: T-47D breast

SMILES	TGI [1]	TGI [2]	TGI [3]	TGI [4]	TGI [5]	TGI [6]	TGI [7]	TGI [8]	TGI [9]	TGI [10]	GI50 [2]	GI50 [3]	GI50 [4]	GI50 [7]	GI50 [1]	GI50 [10]	GI50 [5]	GI50 [6]	GI50 [8]	GI50 [9]
CCCCCCCCCCCCCCCCCC(=O)OCC(CN(C)CCN(C)C)OC(=O)CCCCCCCCCCCCCCCCC (centres undefined)	> 100 µM	> 100 µM	> 100 µM	> 100 µM	> 100 µM	> 100 µM	> 100 µM	> 100 µM	> 100 µM	–	–	–	–	–	–	–	–	–	–	–
COC(=O)C1CC(C(=O)OC)c2nc3cc(C)ccc3nc21 (centres undefined)	> 100 µM	> 100 µM	> 100 µM	> 100 µM	> 100 µM	> 100 µM	> 100 µM	> 100 µM	> 100 µM	–	–	–	–	–	–	–	–	–	–	–
COC(=O)C1=C(C)N(NC(N)=O)C2(N)N(NC(N)=O)C(C)=C(C(=O)OC)C12C(=O)OC (centres undefined)	> 100 µM	> 100 µM	> 100 µM	> 100 µM	> 10 µM	–	> 100 µM	> 100 µM	> 100 µM	–	–	–	–	–	–	–	–	–	–	–
COc1c(O)c2c(c3cc(C(=O)N4CCc5c4c(O)c(OC)c4[nH]c(C(=O)N6CC7CC78C6=CC(=O)c6[nH]cc(C)c68)cc54)[nH]c13)CCN2C(N)=O (centres undefined)	5.75 nM and 3.41 µM and 0.103 µg/mL	14.6 nM and 0.0745 µg/mL	2.91 µM and 0.0729 µg/mL	0.0349 µg/mL	9.37 nM and 929 nM and 0.0348 µg/mL	–	–	76.8 nM and 3.69 µM and 0.185 µg/mL	3.46 nM and 456 nM and 0.0038 µg/mL	40 µM	2.51 nM and 0.0165 µg/mL	420 nM and 0.0198 µg/mL	0.0187 µg/mL	0.157 µM	–	–	–	–	–	–
O=C1c2cccc3cc([N+](=O)[O-])cc(c23)C(=O)N1CCNCCNCCNCCN1C(=O)c2cccc3cc([N+](=O)[O-])cc(c23)C1=O	2.77 µM and 2.65 µM	0.216 µM and 0.444 µM	0.0473 µM and 0.415 µM	0.283 µM	0.668 µM and 4.47 µM	0.133 µM	1.08 µM	2.34 µM and 0.926 µM	0.449 µM and 0.534 µM	–	–	< 0.001 µM	–	–	0.0367 µM	–	–	–	–	–
CC(C)C(=O)/C=C/c1ccccc1	> 100 µM	–	> 100 µM	> 100 µM	> 100 µM	> 100 µM	–	> 100 µM	> 100 µM	–	–	–	–	–	–	–	–	–	–	–
COC(=O)C(CCS(=O)(=O)CC(=O)C(=O)Nc1cccc(C(C)=O)c1)C(=O)OC	> 100 µM	> 100 µM	> 100 µM	> 100 µM	> 100 µM	> 100 µM	> 100 µM	> 100 µM	> 100 µM	–	–	–	–	–	–	–	–	–	–	–
C/C(O)=C(\N=O)C(=O)NCCc1ccccc1	> 100 µM	> 100 µM	> 100 µM	> 100 µM	> 100 µM	> 100 µM	> 55.9 µM	> 100 µM	> 55.2 µM	–	–	–	–	–	–	–	–	–	–	–
O=C(O)C(=Cc1ccnc2ccccc12)C(=O)O	> 100 µM	> 100 µM	–	> 100 µM	> 100 µM	> 100 µM	> 100 µM	> 100 µM	> 100 µM	> 100 µM	–	–	–	–	–	–	–	–	–	–
Nc1ccccc1C#C/C=C\C#Cc1ccccc1C(F)(F)F	9.45 µM	18.7 µM	–	> 100 µM	12.7 µM	18.8 µM	12.5 µM	58.7 µM	41 µM	61.2 µM	0.588 µM	–	21.8 µM	1.13 µM	0.399 µM	19.4 µM	1 µM	0.0869 µM	10.5 µM	1.5 µM
O=S(=O)([O-])c1cccc2cccc(N=Cc3ccccc3[O-])c12.O=S(=O)([O-])c1cccc2cccc(N=Cc3ccccc3[O-])c12.[O]=[U]=[O]	> 100 µM	> 100 µM	> 100 µM	> 100 µM	–	57.9 µM	> 100 µM	> 100 µM	> 100 µM	–	42.6 µM	41.6 µM	> 100 µM	49 µM	> 100 µM	–	–	23.3 µM	45.6 µM	42.1 µM
Cc1cccc(C(C)(C)C)c1NC(=O)C(=O)C(C(=O)/C=C\c1ccccc1)C1OC(=O)c2ccccc21 (centres undefined)	> 100 µM	> 100 µM	> 100 µM	–	> 100 µM	> 100 µM	> 100 µM	> 100 µM	> 100 µM	–	–	–	–	–	–	–	–	–	–	–
CCN(CC)c1ccc(/C=C\c2cc(C)c3cc(C)ccc3n2)cc1	> 100 µM	–	> 100 µM	81 µM	29.6 µM	> 100 µM	> 100 µM	> 100 µM	> 100 µM	> 100 µM	–	9.63 µM	7.24 µM	2.32 µM	11.7 µM	1.11 µM	3.39 µM	4.83 µM	51.7 µM	3.52 µM
CC[C@]1(O)CC2CN(CCc3c([nH]c4ccccc34)[C@@](C(=O)OC)(c3cc4c(cc3OC)N(C)[C@H]3[C@@](O)(C(=O)OC)[C@H](OC(C)=O)[C@]5(CC)C=CCN6CC[C@]43[C@@H]65)C2)C1 (some centres undefined)	> 37.3 µM	9.89 µM	> 50 µM	6.95 µM	0.141 µM	5.05 µM	> 21.3 µM	15.6 µM	8.54 µM	–	< 0.005 µM	0.0303 µM	< 0.005 µM	0.0588 µM	< 0.005 µM	–	< 0.005 µM	< 0.005 µM	< 0.005 µM	< 0.005 µM
CC(O)/C=C/C(CCC(C)CO)C(C)C (centres undefined)	> 100 µM	> 100 µM	> 100 µM	> 100 µM	> 100 µM	> 100 µM	> 100 µM	> 100 µM	> 100 µM	–	–	–	–	–	–	–	–	–	–	–
CCCCCCCCCC(=O)CC(=O)c1ccc(O)cc1O	74.4 µM	46.5 µM	> 100 µM	49.9 µM	61 µM	95.5 µM	> 100 µM	> 100 µM	> 100 µM	–	–	–	–	–	–	–	–	–	–	–
O=C1C=C[C@@]23CC1C(O)C[C@H]2C=Cc1ccccc13 (some centres undefined)	> 100 µM	> 100 µM	> 100 µM	> 100 µM	> 100 µM	> 100 µM	> 100 µM	> 100 µM	> 100 µM	–	–	–	–	–	–	–	–	–	–	–
CCOC(=O)CC(=O)Sc1ccccc1	24.6 µM	65.6 µM	> 100 µM	67.9 µM	> 100 µM	–	–	> 100 µM	39.4 µM	–	–	–	–	–	–	–	–	–	–	–
N#CC(C(=O)/C(=N/N)C(C#N)c1ccc(Cl)cc1)c1ccc(Cl)cc1 (centres undefined)	> 100 µM	> 100 µM	> 100 µM	> 100 µM	> 100 µM	> 100 µM	> 100 µM	> 100 µM	> 100 µM	–	–	–	–	–	–	–	–	–	–	–
